Legend:
sperm = sperm percent motility and progression scoring; format: cell-based, cynomolgus macaque; conditions: for effect on percentage of motile sperm and sperm progression: zona binding studies, 1.5 mg/ml, pre- or post-capacitation treatment
Description: Four adult male cynomolgus macaques which were caged individually at the California Regional Primate Research Center (CRPRC) in compliance with the Federal Animal Welfare Act and the NIH Guidelines for Care and Use of Laboratory Animals. The animals were maintained on a 12L:12D light cycle at 25-27° C. and were given a diet of Purina monkey chow and water ad libitum. Semen samples were collected by electroejaculation, e.g., as described in Sarason et al., The use of nonmetal electrodes in ejaculation of restrained but unanesthetized macaques, (1991) J. Med. Primatol., 20:122-125, into 15 ml centrifuge tubes containing 5 ml of Hepes-buffered BWW maintained at room temperature (RT). After 15-30 min, the coagulum was removed, the semen samples were further diluted with an additional 5 ml of Hepes-buffered BWW containing 3 mg/ml bovine serum albumin (BSA) and then concentrated into a 1 ml pellet by centrifugation at 300×g for 10 minutes. LSA (previously dissolved in hepes-buffered BWW salts) was added to half of the pellet to give a final concentration of 1.5 mg LSA/ml of sperm. An equal volume of hepes-buffered BWW salts was added to the other half of the pellet. Both aliquots were incubated at room temperature for 40 minutes and then washed and capacitated, e.g., as described in Tollner T L, et al., Soybean trypsin inhibitor as a probe for the acrosome reaction in motile cynomolgus macaque sperm (2000) Zygote 8:127-137. Briefly, sperm were centrifuged through 3.5 ml of 80% Percoll for 25 minutes at 400 g. The supernatant containing Percoll and any remaining sperm was removed and the sperm pellet was resuspended in bicarbonate-buffered BWW, e.g., as described in Overstreet et al., Penetration of human spermatozoa into the human zona pellucida and the zona-free hamster egg: a study of fertile donors and infertile patients, (1980), Fertil. Steril., 33:534-542; and, Overstreet et al., In vitro capacitation of human spermatozoa after passage through a column of cervical mucus, (1980) Fert. Steril., 34:604-606, containing 30 mg/ml of BSA. Sperm were washed two more times by centrifugation at 300 g for 10 minutes and dilution in this medium. […] Following activation, 200 sperm per treatment were scored for percent motility at 200× magnification with phase-contrast optics using a BH-2 series Olympus microscope. Progression was assessed with a 0-4 rating system (0=no progressive sperm; 1=1-25% of motile sperm have forward (space gaining) progressive motility; 2=26-50% of motile sperm have forward progressive motility; 3=51-75% of motile sperm have forward progressive motility; 4=76-100% of motile sperm have forward progressive motility).

[1] = system: zona pellucida of immature oocytes; experiment: sperm-zona pellucida binding assay (ZBA); format: cell-based, cynomolgus macaque
[2] = oral; cited from earlier work
mature oocytes = experiment: in vitro fertilization (IVF) with treated sperm; format: cell-based, cynomolgus macaque; conditions: 1.5 mg/ml
[3] = 1.5 mg/ml added post-capacitation (PC, Post-C), after activation
[4] = 1.5 mg/ml added pre-capacitation (Pre-C, pre-wash PW), prior to washing through Percoll and overnight incubation

Fucoidan [reference compound]
effect on percentage of motile sperm and sperm progression (sperm): No motility changes were observed | inhibition of sperm-zona binding as compared to controls [1, 3]: 91.5% | inhibition of sperm-zona binding as compared to controls [1, 4]: 36%

polyanetholesulfonic acid [PASA]
binding of treated sperm to the zona pellucida of immature oocytes (in words) ([1]; treatment post-capacitation (PC) or pre-wash (PW), FIG. 3): inhibited their binding to the zona pellucida

Lignosulfonic acid [LSA]
LD50 [2]: > 40000 mg/kg | fertilization in IVF trials (mature oocytes; post-capacitation (Post-C, PC) treatment): blocked fertilization | fertilization in IVF trials (mature oocytes; pre-capacitation (prewash, PW, Pre-C) treatment): blocked fertilization | effect on sperm motility in IVF (sperm; IVF sperm preparations): no difference between treatments on sperm motility | percentage of sperm developing hyperactivated motility patterns consistent with capacitation (sperm; LSA-treated and control sperm): > 75% | effect on percentage of motile sperm and sperm progression (sperm): Neither the percentage of motile sperm or sperm progression were effected | inhibition of sperm-zona binding as compared to controls [1, 3]: 92.5% | inhibition of sperm-zona binding as compared to controls [1, 4]: 82.5%
